Reference: ChEMBL document CHEMBL4007412, “Design, Synthesis, and Biological Evaluation of Mitochondria-Targeted Flavone-Naphthalimide-Polyamine Conjugates with Antimetastatic Activity” (J Med Chem, 2017)
Calls of active or inactive are those of the source. The calls are words filed in the database; no cut-off is given here.

Tests used:
HepG2 [1] = experiment: Cytotoxicity against human HepG2 cells assessed as cell growth inhibition after 48 hrs by MTT assay; type: functional, cell-based; settings: HepG2, 48 h
HepG2 [2] = experiment: Disruption of mitochondrial membrane potential in human HepG2 cells at 20 uM after 24 hrs by Rhodamine123 staining-based flow cytometry; type: functional, cell-based
SMMC-7721 [3] = experiment: Effect on ODC expression in human SMMC7721 cells at 5 to 20 uM after 24 hrs by Western blot analysis; type: functional, cell-based
HepG2 [4] = experiment: Induction of ROS generation in human HepG2 cells assessed as depletion of GSH content at 20 uM after 24 hrs by GSSG assay; type: functional, cell-based
[5] = Drug localization in mitochondria of human HepG2 cells at 10 uM after 8 hrs by UV-bright field microscopic analysis; type: ADME
SMMC-7721 [6] = experiment: Effect on SSAT expression in human SMMC7721 cells at 5 to 20 uM after 24 hrs by Western blot analysis; type: functional, cell-based
[7] = Drug uptake in human HepG2 cells assessed as PAT-mediated compound uptake by measuring fluorescent intensity at 10 uM after 2 to 8 hrs in presence of spermidine by HCS analysis; type: ADME, cell-based
SMMC-7721 [8] = experiment: Effect on spermidine levels in human SMMC7721 cells at 20 uM after 24 hrs by HPLC analysis; type: functional, cell-based
SMMC-7721 [9] = experiment: Cytotoxicity against human SMMC7721 cells assessed as cell growth inhibition after 48 hrs by MTT assay; type: functional, cell-based; settings: SMMC-7721, 48 h
HepG2 [10] = experiment: Induction of superoxide production in human HepG2 cells at 20 uM after 24 hrs by microplate reader based assay; type: functional, cell-based
[11] = Drug localization in human HepG2 cell endoplasmic reticulum at 10 uM after 8 hrs by ER tracker-staining based confocal microscopic analysis; type: ADME
HepG2 [12] = experiment: Cytotoxicity against human HepG2 cells assessed as effect on cell viability at 5 to 10 uM after 24 hrs in presence of spermidine by MTT assay; type: functional, cell-based
HepG2 [13] = experiment: Induction of ROS generation in human HepG2 cells at 20 uM after 24 hrs in presence of NAC by DCFH-DA-staining based HCS analysis; type: functional, cell-based
SMMC-7721 [14] = experiment: Antiproliferative activity against human SMMC7721 cells assessed as reduction in cell viability at 20 uM pre-treated with TOC after 48 hrs by MTT assay; type: functional, cell-based
[15] = Cytotoxicity against human QSG7701 cells assessed as cell growth inhibition after 48 hrs by MTT assay; type: cell-based; settings: QSG7701, 48 h
HepG2 [16] = experiment: Antiproliferative activity against human HepG2 cells assessed as reduction in cell viability at 20 uM pre-treated with CAT after 48 hrs by MTT assay; type: functional, cell-based
[17] = Drug localization in human HepG2 cell mitochondria at 10 uM after 8 hrs by Mito tracker-staining based confocal microscopic analysis; type: ADME
[18] = Drug localization in human HepG2 cell lysosomes at 10 uM after 8 hrs by Lyso tracker-staining based confocal microscopic analysis; type: ADME, Lysosome
HepG2 [19] = experiment: Effect on putrescine levels in human HepG2 cells at 20 uM after 24 hrs by HPLC analysis; type: functional, cell-based
[20] = Drug localization in human HepG2 cell membranes at 10 uM after 8 hrs by DiO-staining based microscopic analysis; type: ADME
HepG2 [21] = experiment: Induction of intracellular ROS generation in human HepG2 cells at 20 uM after 8 hrs by DCFH-DA staining based HCS analysis relative to control; type: functional
HepG2 [22] = experiment: Induction of ROS generation in human HepG2 cells at 20 uM after 24 hrs in presence of TOC by DCFH-DA-staining based HCS analysis; type: functional, cell-based
[23] = Cytotoxicity against human QSG7701 cells assessed as reduction in cell viability up to 20 uM after 24 to 72 hrs by MTT assay; type: cell-based
SMMC-7721 [24] = experiment: Cytotoxicity against human SMMC7721 cells assessed as reduction in cell viability up to 20 uM after 24 to 72 hrs by MTT assay; type: functional, cell-based
[25] = Drug localization in human HepG2 cell nucleus at 10 uM after 8 hrs by propidium iodide-staining based microscopic analysis; type: ADME
HepG2 [26] = experiment: Disruption of mitochondrial membrane potential in human HepG2 cells at 20 uM after 24 hrs by JC-1 staining based flow cytometry; type: functional, cell-based
HepG2 [27] = experiment: Induction of p53 expression in human HepG2 cells up to 20 uM after 24 hrs by Western blot analysis relative to control; type: functional, cell-based
HepG2 [28] = experiment: Effect on SSAT expression in human HepG2 cells at 5 to 20 uM after 24 hrs by Western blot analysis; type: functional, cell-based
H22 [29] = experiment: Antimetastatic activity against […] xenografted in pulmonary metastasis Kunming mouse model assessed as reduction in tumor metastatic nodules at 3 mg/kg, iv dosed every day starting from day 8 after tumor cell inoculation by H/E staining based leica microscopic analysis; type: functional, organism-based
HepG2 [30] = experiment: Induction of H2O2 production in human HepG2 cells; type: functional, cell-based
[31] = Drug uptake in human SMMC7721 cells assessed as PAT-mediated cellular uptake at 10 uM by HCS analysis; type: ADME, cell-based; settings: TDE = time-dependent effect
Mus musculus = experiment: Toxicity in Kunming mouse xenografted with […] cells assessed as effect on lung weight index at 3 mg/kg, iv dosed every day starting from day 8 after tumor cell inoculation; type: organism-based; settings: in vivo
HepG2 [32] = experiment: Induction of apoptosis in human HepG2 cells assessed as late apoptotic cells at 20 uM after 24 hrs by Annexin V-FITC/propidium iodide staining based flow cytometric analysis (reference value: 8.96 %); type: functional
H22 [33] = experiment: Antimetastatic activity against […] xenografted in pulmonary metastasis Kunming mouse model assessed as reduction in tumor metastatic nodules at 3 mg/kg, iv dosed every day starting from day 8 after tumor cell inoculation; type: functional; design: scale not given: the % may be the effect or the level left
HepG2 [34] = experiment: Effect on ODC expression in human HepG2 cells at 5 to 20 uM after 24 hrs by Western blot analysis; type: functional, cell-based
[35] = Induction of intracellular ROS generation in human QSG7701 cells at 20 uM after 8 hrs by DCFH-DA staining based HCS analysis relative to control; type: cell-based; settings: qsg7701, 8 h
HepG2 [36] = experiment: Induction of apoptosis in human HepG2 cells assessed as increase in apoptotic cells up to 20 uM after 24 hrs by AO/EB double staining based flow cytometric analysis; type: functional, cell-based
[37] = Induction of apoptosis in human QSG7701 cells assessed as up-regulation of caspase 3 expression up to 20 uM after 24 hrs by Western blot analysis; type: cell-based; settings: qsg7701, 24 h
[38] = Drug uptake in human SMMC7721 cells assessed as PAT-mediated cellular uptake after 8 hrs by HCS analysis; type: ADME, cell-based
SMMC-7721 [39] = experiment: Induction of intracellular ROS generation in human SMMC7721 cells at 20 uM after 8 hrs by DCFH-DA staining based HCS analysis relative to control; type: functional
HepG2 [40] = experiment: Induction of apoptosis in human HepG2 cells assessed as early apoptotic cells at 20 uM after 24 hrs by Annexin V-FITC/propidium iodide staining based flow cytometric analysis (reference value: 2.09 %); type: functional
HepG2 [41] = experiment: Inhibition of colony formation of human HepG2 cells up to 20 uM […] by crystal violet staining based colony formation assay; type: functional, cell-based

Drug uptake [5]: Active | Drug uptake [7]: Not Active | Drug uptake [11]: Not Active | Drug uptake [17]: Active | Drug uptake [18]: Not Active | Drug uptake [20]: Not Active | Drug uptake [25]: Not Active | Drug uptake [31]: Tde | Drug uptake [38]: Dose-dependent effect
Structure (SMILES): Cl.Cl.NCCCCNCCCCN1C(=O)c2cccc3c(-c4cc(=O)c5ccccc5o4)ccc(c23)C1=O
IC50 (HepG2 [1]): 10.3 µM | Activity (HepG2 [2]): Active | Activity (SMMC-7721 [3]): inactive | Activity (HepG2 [4]): Active | Activity (SMMC-7721 [6]): inactive | Activity (SMMC-7721 [8]): inactive | IC50 (SMMC-7721 [9]): 14.1 µM | Activity (HepG2 [10]): Active | Activity (HepG2 [12]): inactive | Activity (HepG2 [13]): inactive | Activity (SMMC-7721 [14]): inactive | IC50 [15]: > 50 µM | Activity (HepG2 [16]): inactive | Activity (HepG2 [19]): inactive | fold change (FC) (HepG2 [21]): 2.6 | Activity (HepG2 [22]): inactive | Activity [23]: Non-Toxic | Activity (SMMC-7721 [24]): Active | Activity (HepG2 [26]): Active | Activity (HepG2 [27]): Dose-dependent effect | Activity (HepG2 [28]): inactive | Activity (H22 [29]): Active | Activity (HepG2 [30]): Active | Activity (Mus musculus): Non-Toxic | Activity (HepG2 [32]): 26.6% | Activity (H22 [33]): 77.9% | Activity (HepG2 [34]): inactive | Activity [35]: Non-Toxic | Activity (HepG2 [36]): Dose-dependent effect | Activity [37]: Non-Toxic | fold change (FC) (SMMC-7721 [39]): 2.2 | Activity (HepG2 [40]): 26.6% | Activity (HepG2 [41]): Active
